Assays:
[1] = target: T1, Corticotropin releasing factor receptor (Rattus norvegicus, UniProt P47866+P35353); assay: In vitro binding affinity against Corticotropin releasing factor receptor in rat cortical homogenates
Canis familiaris [2] = assay: Area under the curve at i.v. dose of 0.2 mg/kg; format: ADME, organism-based, Canis lupus familiaris; set-up: dose 0.2 mg/kg, route intravenous; conditions: dog, in vivo, iv
[3] = Oral bioavailability at a dose of 1 mg/kg in dogs; format: ADME, organism-based, Canis lupus familiaris; conditions: dog, in vivo
[4] = Maximal plasma concentration at a dose of 1 mg/kg (oral); format: ADME, organism-based, Canis lupus familiaris; set-up: route oral, dose 1 mg/kg; conditions: dog
Canis familiaris [5] = assay: Area under the curve at a dose of 1 mg/kg (oral); format: ADME, organism-based, Canis lupus familiaris; set-up: dose 1 mg/kg; conditions: dog, in vivo
[6] = Steady state volume of distribution at a dose of 0.2 mg/kg i.v.; format: ADME, organism-based, Canis lupus familiaris; set-up: dose 0.2 mg/kg, route intravenous; conditions: dog, in vivo, iv, read-out: Vss
[7] = Clearance value at a dose of 0.2 mg/kg i.v.; format: ADME, organism-based, Canis lupus familiaris; set-up: dose 0.2 mg/kg, route intravenous; conditions: dog, in vivo, iv, read-out: Cls (converted)
Canis familiaris [8] = species: Canis familiaris; assay: (§1) Half life was evaluated in dog; format: ADME, organism-based, Canis lupus familiaris; conditions: in vivo
[9] = as §1; format: ADME, organism-based, Canis lupus familiaris; conditions: in vivo
[10] = Partition coefficient (logP); format: physicochemical; conditions: octanol/water
[11] = pKa value of the compound; format: physicochemical
[12] = target: T1, Corticotropin releasing factor receptor; assay: In vitro binding affinity against CRF receptor in rat cortical homogenates

Row | Ki [1] [nM] | logP [10] | SMILES | other results
1 | 4.4 |  | CCc1nc2c(-c3ccc(Cl)cc3C(F)(F)F)nccc2n1C(CC)C1CC1 (stereo not drawn) | 
2 | 1.9 |  | CCC[C@@H](C)n1c(CC)nc2c(-c3ccc(OC(F)(F)F)cc3Cl)nccc21 | 
3 | 14 |  | CCc1nc2c(-c3ccc(Cl)cc3C)nccc2n1C(CC)C1CC1 (stereo not drawn) | 
4 | 2.3 |  | CCC[C@H](C)n1c(CC)nc2c(-c3ccc(OC(F)(F)F)cc3Cl)nccc21 | AUC (Canis familiaris [2]): 0.341 µM·h; bioavailability [3]: 33%; Cmax [4]: 92.4 nM; AUC (Canis familiaris [5]): 0.569 µM·h; Vd [6]: 19.1 L/kg; clearance [7]: 23.3 mL/min/kg; T1/2 (Canis familiaris [8]): 9.4 h; half-life [9]: 15.1 h
5 |  | 4.33 | CCc1nc2c(-c3ccc(Cl)cc3Cl)ncnc2n1C(C)C1CC1 (stereo not drawn) | pKa [11]: < 3
6 | 2.9 |  | CCc1nc2c(-c3ccc(C(F)(F)F)cc3Cl)nccc2n1C(CC)C1CC1 (stereo not drawn) | 
7 | 3 |  | CCCC(C)n1c(CC)nc2c(-c3ccc(Cl)cc3Cl)nccc21 (stereo not drawn) | 
8 | 3.5 |  | CCCC(C)n1c(CC)nc2c(-c3ccc(C(F)(F)F)cc3Cl)nccc21 (stereo not drawn) | 
9 | 9.1 |  | CCCC(C)n1c(CC)nc2c(-c3ccc(Cl)cc3C)nccc21 (stereo not drawn) | 
10 |  | 5.56 | CCc1nc2c(-c3ccc(Cl)cc3Cl)ccnc2n1C(CC)C1CC1 (stereo not drawn) | pKa [11]: 3.86
11 | 5.4 |  | CCc1nc2c(-c3ccc(C(F)(F)F)cc3Cl)nccc2n1C(CC)CC | 
12 | 9 |  | CCCC(C)n1c(CC)nc2c(-c3ccc(OC(F)F)cc3C)nccc21 (stereo not drawn) | 
13 |  | 5.35 | CCCC(C)n1c(CC)nc2c(-c3ccc(OC(F)F)cc3Cl)ccnc21 (stereo not drawn) | 
14 |  | 4.1 | CCc1nc2c(-c3ccc(Cl)cc3Cl)nccc2n1C(CC)C1CC1 (stereo not drawn) | 
15 | 2.8 | 4.62 | CCCC(C)n1c(CC)nc2c(-c3ccc(OC(F)(F)F)cc3Cl)nccc21 (stereo not drawn) | pKa [11]: 5.09
16 |  |  | CCc1nc2c(-c3ccc(OC(F)(F)F)cc3Cl)nccc2n1C(C)CC (stereo not drawn) | Ki [12]: 7.8 nM
